Reference: patent US9365612B2, “Caspase inhibitors” (United States of America as represented by the Secretary, …, priority 2010, dated 2016)

What was measured:
[1] = plasma protein binding, human; type: in vitro ADME; conditions: relative to VX-765 (1) and NCGC00185682 (3)
Method: (§1) Given the aqueous stability of these new agents, selected ADME properties for chosen compounds were also examined. VX-765 (1), VRT-043198 (2b), NCGC00185682 (3), NCGC00183434 (4) and NCGC00183681 (16) were evaluated for a profile of bi-directional Caco-2 permeability, plasma protein binding (both human and rat) and microsomal stability (both human and rat) studies (FIG. 9, Table 2). […] The clearance rates (Clint) and t ½ for VRT-043198 (2b), NCGC00185682 (3), NCGC00183434 (4) and NCGC00183681 (16) were all moderate.

caspase 1 [2] = biological target: T1, caspase 1 (Homo sapiens, UniProt P29466); test: commercial panel of caspases (Reaction Biology Corporation), caspase 1; type: biochemical; conditions: read-out: IC50 versus caspase 1
T1 sequence (P29466 120-297 limits assumed): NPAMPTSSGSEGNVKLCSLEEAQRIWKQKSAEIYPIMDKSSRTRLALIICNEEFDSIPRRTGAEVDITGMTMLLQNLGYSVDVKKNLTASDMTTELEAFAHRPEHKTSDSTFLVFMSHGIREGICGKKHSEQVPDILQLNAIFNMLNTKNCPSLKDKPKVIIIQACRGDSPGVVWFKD
T1 sequence (P29466 317-404 limits assumed): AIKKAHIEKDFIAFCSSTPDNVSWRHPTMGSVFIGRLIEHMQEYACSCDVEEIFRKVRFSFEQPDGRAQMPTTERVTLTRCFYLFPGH
Text: (§2) Having established that the compounds (3), (4) and (16) are potent inhibitors of caspase 1, the selectivity of these agents was examined. […] Wannamaker, W.; Davies, R.; Namchuk, M.; Pollard, J.; Ford, P.; Ku, G.; Decker, C.; Charifson, P.; Weber, P.; Germann, U. A.; Kuida, K.; Randle, J. C. R. J. Pharmacol. Exp. Ther. 2007, 321, 509-516. […] VRT-043198 (2b), NCGC00185682 (3), NCGC00183434 (4) and NCGC00183681 (16) were entered within a commercial panel of caspases offered by Reaction Biology Corporation. […] A particularly interesting aspect of these molecules was the high selectivity for caspase 1. […] All other activities were about the 1 μM threshold.

[3] = microsomal stability (both human and rat); type: in vitro ADME; conditions: for clearance rates (Clint) / t ½: species not given
Method: as §1

[4] = aqueous degradation study by LCMS over 96 hours; type: physicochemical; conditions: for aqueous stability in acidic conditions (pH 2): pH 2, LCMS; for aqueous stability in acidic conditions (pH 2) / aqueous stability in neutral conditions (water, pH 7) / aqueous stability in basic conditions (pH 8): over 96 hours; for aqueous stability in neutral conditions (water, pH 7): pH 7, LCMS; for aqueous stability in basic conditions (pH 8): pH 8, LCMS
Method: In order to evaluate the agent's stability profile, VX-765 (1), VRT-043198 (2b), NCGC00185682 (3), NCGC00183434 (4) and NCGC00183681 (16) were examined within an aqueous degradation study at neutral (pH 7) acidic (pH 2) and basic (pH 8) conditions. The study was conducted by monitoring the degradation of each agent by LCMS analysis at various time points over 96 hours (FIG. 8). […] This degradation was amplified in both basic and acidic conditions. Conversely, the active agent VRT-043198 (2b) was very stable in both water and acidic conditions and its degradation at pH 8 was moderate.

[5] = plasma protein binding, rat; type: in vitro ADME; conditions: relative to VX-765 (1) and NCGC00185682 (3)
Method: as §1

caspase 14 = biological target: T2, caspase 14 (Homo sapiens, UniProt P31944); test: commercial panel of caspases (Reaction Biology Corporation), caspase 14; type: biochemical; conditions: read-out: IC50 versus caspase 14
T2 construct: purchased Reaction Biology Corporation
T2 sequence (P31944 6-146 limits assumed): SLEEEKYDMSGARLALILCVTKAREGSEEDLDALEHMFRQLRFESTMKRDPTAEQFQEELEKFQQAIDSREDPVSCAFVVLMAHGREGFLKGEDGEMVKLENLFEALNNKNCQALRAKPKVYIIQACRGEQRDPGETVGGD
T2 sequence (P31944 153-242 limits assumed): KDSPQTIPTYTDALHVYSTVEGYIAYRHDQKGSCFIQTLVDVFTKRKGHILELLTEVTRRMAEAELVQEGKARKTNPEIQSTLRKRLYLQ
Text: as §2

caspase 1 [6] = biological target: T1, caspase 1; test: caspase 1 inhibition assay with caged fluorescent peptide substrate (Ac-LEHD-AMC); type: biochemical; conditions: 2 nM enzyme, 20 minutes at room temperature, fluorescence detection, read-out: IC50 versus caspase 1
Method: Each agent's inhibitory capacity versus caspase 1 was evaluated. A well established protocol was utilized whereby caspase 1 activity is measured utilizing 2 nM enzyme in the presence and absence of compound and a caged fluorescent peptide substrate (Ac-LEHD-AMC). Wannamaker et al, Journal of Pharmacology and Experimental Therapeutics, 2007, 321, 509-516. The compounds were examined across a titration series (0.325 nM→57.5 μM) and data was recorded via fluorescence detection following an incubation period of 20 minutes at room temperature.

caspase 9 [7] = biological target: T3, caspase 9 (Homo sapiens, UniProt P55211); test: commercial panel of caspases (Reaction Biology Corporation), caspase 9; type: biochemical; conditions: read-out: IC50 versus caspase 9
T3 construct: purchased Reaction Biology Corporation
T3 sequence (P55211 1-315 limits assumed): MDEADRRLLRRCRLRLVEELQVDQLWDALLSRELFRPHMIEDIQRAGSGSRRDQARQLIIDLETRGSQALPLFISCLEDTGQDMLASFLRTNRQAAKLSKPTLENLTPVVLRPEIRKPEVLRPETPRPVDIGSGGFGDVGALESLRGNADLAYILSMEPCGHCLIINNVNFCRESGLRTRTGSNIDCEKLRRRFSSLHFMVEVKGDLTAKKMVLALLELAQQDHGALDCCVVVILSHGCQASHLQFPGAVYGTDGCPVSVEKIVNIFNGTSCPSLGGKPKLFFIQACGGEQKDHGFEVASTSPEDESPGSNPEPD
T3 sequence (P55211 331-416 limits assumed): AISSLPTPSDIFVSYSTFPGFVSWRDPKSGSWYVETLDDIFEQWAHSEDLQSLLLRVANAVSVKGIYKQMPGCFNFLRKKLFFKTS
Text: as §2

Pgp = biological target: T4, Pgp (Homo sapiens, UniProt P08183); test: Caco-2 control experiment with verapamil (Pgp efflux); type: in vitro ADME
T4 construct: endogenous in cells; host or cells: Caco-2
Method: as §1

Caco-2 = test: bi-directional Caco-2 permeability; type: in vitro ADME
Method: as §1

caspase 9 [8] = biological target: T3, caspase 9; conditions: reported by Randle and coworkers (Wannamaker et al. 2007); read-out: Ki versus caspase 9; cited from earlier work
caspase 6 [9] = biological target: T5, caspase 6 (Homo sapiens, UniProt P55212); test: commercial panel of caspases (Reaction Biology Corporation), caspase 6; type: biochemical; conditions: read-out: IC50 versus caspase 6
T5 sequence (P55212 24-179 limits assumed): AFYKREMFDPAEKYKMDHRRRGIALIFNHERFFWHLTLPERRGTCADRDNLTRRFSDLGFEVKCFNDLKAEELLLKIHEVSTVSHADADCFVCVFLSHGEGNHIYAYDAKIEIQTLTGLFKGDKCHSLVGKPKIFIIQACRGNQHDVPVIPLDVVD
T5 sequence (P55212 194-293 limits assumed): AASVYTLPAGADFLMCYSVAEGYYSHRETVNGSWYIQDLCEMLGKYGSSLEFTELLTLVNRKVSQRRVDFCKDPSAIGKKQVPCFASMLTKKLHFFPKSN
Text: as §2

caspase 4 [10] = biological target: T6, caspase 4 (Homo sapiens, UniProt P49662); conditions: reported by Randle and coworkers (Wannamaker et al. 2007); read-out: Ki versus caspase 4; cited from earlier work
T6 construct: purchased Reaction Biology Corporation
T6 sequence (P49662 81-270 limits assumed): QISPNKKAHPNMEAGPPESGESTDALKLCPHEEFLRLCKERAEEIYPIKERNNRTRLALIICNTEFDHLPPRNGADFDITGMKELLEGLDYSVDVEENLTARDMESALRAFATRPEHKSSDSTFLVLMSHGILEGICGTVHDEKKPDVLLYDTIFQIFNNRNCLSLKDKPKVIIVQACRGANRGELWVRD
T6 sequence (P49662 290-377 limits assumed): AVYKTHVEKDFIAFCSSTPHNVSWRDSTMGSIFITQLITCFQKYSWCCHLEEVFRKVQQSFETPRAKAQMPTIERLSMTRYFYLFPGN

caspase 8 [11] = biological target: T7, caspase 8 (Homo sapiens, UniProt Q14790); test: commercial panel of caspases (Reaction Biology Corporation), caspase 8; type: biochemical; conditions: read-out: IC50 versus caspase 8
Text: as §2

caspase 4 [12] = biological target: T6, caspase 4; test: commercial panel of caspases (Reaction Biology Corporation), caspase 4; type: biochemical; conditions: read-out: IC50 versus caspase 4
Text: as §2

caspase 6 [13] = biological target: T5, caspase 6; conditions: reported by Randle and coworkers (Wannamaker et al. 2007); read-out: Ki versus caspase 6; cited from earlier work
[14] = system: caspases 3, 7, granzyme B, cathepsin B and tyrpsin; conditions: reported by Randle and coworkers; cited from earlier work
caspase 1 [15] = biological target: T1, caspase 1; conditions: reported by Randle and coworkers (Wannamaker et al. 2007); read-out: Ki versus caspase 1; cited from earlier work
caspase 8 [16] = biological target: T7, caspase 8; conditions: reported by Randle and coworkers (Wannamaker et al. 2007); read-out: Ki versus caspase 8; cited from earlier work

T4 sequence (P08183 whole entry): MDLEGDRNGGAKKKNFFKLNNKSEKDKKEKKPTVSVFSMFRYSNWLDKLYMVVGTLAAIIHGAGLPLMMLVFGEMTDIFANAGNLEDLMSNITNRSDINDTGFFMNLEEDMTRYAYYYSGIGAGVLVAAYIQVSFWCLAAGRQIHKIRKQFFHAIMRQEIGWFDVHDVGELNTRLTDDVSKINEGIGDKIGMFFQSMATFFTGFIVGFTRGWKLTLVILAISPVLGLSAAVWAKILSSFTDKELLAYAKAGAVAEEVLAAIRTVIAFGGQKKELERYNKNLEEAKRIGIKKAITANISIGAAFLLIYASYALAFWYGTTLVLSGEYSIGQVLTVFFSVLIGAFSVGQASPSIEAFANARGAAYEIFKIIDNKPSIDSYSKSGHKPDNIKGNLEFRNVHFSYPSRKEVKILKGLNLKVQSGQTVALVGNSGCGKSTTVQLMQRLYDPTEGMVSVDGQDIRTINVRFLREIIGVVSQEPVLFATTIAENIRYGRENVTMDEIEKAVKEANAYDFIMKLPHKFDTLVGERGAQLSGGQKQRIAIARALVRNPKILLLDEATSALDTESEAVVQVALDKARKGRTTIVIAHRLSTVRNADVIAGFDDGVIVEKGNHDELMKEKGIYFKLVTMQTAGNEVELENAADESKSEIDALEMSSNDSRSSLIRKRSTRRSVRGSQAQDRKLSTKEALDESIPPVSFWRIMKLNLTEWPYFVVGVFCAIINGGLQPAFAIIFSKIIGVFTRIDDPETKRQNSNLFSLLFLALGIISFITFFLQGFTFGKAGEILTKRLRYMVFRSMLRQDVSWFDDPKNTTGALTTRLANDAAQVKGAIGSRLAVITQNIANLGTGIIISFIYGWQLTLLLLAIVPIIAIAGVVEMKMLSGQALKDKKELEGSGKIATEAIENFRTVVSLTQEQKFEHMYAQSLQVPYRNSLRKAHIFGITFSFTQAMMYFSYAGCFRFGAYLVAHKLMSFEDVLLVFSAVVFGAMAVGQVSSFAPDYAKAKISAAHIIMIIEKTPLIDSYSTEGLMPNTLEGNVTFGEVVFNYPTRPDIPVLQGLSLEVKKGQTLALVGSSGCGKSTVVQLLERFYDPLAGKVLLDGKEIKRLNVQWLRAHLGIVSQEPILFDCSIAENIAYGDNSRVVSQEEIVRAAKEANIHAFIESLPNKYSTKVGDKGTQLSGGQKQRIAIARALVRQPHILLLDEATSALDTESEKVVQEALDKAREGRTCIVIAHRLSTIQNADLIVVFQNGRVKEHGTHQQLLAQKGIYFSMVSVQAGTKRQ
T7 sequence (Q14790 217-374 limits assumed): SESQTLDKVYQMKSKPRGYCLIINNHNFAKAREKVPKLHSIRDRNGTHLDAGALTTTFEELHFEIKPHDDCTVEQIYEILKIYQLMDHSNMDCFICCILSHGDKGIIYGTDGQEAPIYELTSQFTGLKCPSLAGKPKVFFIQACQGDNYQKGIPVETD
T7 sequence (Q14790 385-479 limits assumed): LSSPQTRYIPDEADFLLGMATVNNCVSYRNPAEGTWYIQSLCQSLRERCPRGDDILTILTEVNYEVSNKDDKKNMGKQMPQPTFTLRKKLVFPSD

Row | Compound | free fraction in protein binding assay [1] | IC50 (caspase 1 [2]) | clearance rates (Clint) ([3]; liver microsomes) | t ½ ([3]; liver microsomes) | aqueous stability in acidic conditions (pH 2) [4] | aqueous stability in neutral conditions (water, pH 7) [4] | aqueous stability in basic conditions (pH 8) [4] | free fraction in protein binding assay [5] | IC50 (caspase 1 [6]) | Pgp efflux substrate (Pgp) | Caco-2 A to B permeability (Caco-2) | Caco-2 B to A levels (Caco-2) | IC50 (caspase 14) | IC50 (caspase 9 [7]) | also measured
1 | CCOC(=O)CC(C#N)NC(=O)C1CCCN1C(=O)C(NC(=O)c1ccc(N)c(Cl)c1)C(C)(C)C (stereo not shown) [NCGC00185682 (3)] | – | 43.4 nM | moderate | moderate | exceptionally stable | exceptionally stable | – | – | 145 nM | substrates for Pgp efflux | moderately better levels | high | – | – | degradation in liver microsomes without NADPH ([3]; without NADPH as a cofactor): slight degree of degradation; degradation in basic conditions ([4]; basic (pH 8), after 22 hours): fully degraded
2 | CC(C)(C)[C@H](NC(=O)c1ccc(N)c(Cl)c1)C(=O)N1CCC[C@H]1C(=O)N[C@H](C=O)CC(=O)O [VRT-043198 (2b), reference compound] | significantly higher | 0.204 nM | moderate | moderate | very stable | very stable | moderate | significantly higher | 11.5 nM | – | – | – | 58.5 nM | 5.07 nM | Ki (caspase 9 [8]): 1030 nM; IC50 (caspase 6 [9]): > 10000 nM; Ki (caspase 4 [10]): < 1 nM; IC50 (caspase 8 [11]): 3.3 nM; IC50 (caspase 4 [12]): 14.5 nM; Ki (caspase 6 [13]): 560 nM; activity versus the remaining targets [14]: little activity; Ki (caspase 1 [15]): < 1 nM; Ki (caspase 8 [16]): 100 nM
3 | CCO[C@@H]1OC(=O)C[C@@H]1NC(=O)[C@@H]1CCCN1C(=O)[C@@H](NC(=O)c1ccc(N)c(Cl)c1)C(C)(C)C [VX-765 (1), reference compound] | – | – | – | – | amplified | moderate degradation | amplified | – | – | substrates for Pgp efflux | moderately better levels | high | – | – | metabolism by liver microsomes ([3]; liver microsomes): minimal ability to be metabolized; half-life ([3]; liver microsomes, read-out: t ½): > 157 h; degradation at pH 2 ([4]; pH 2, after 3.5 hours): 40%; compound decomposed in water ([4]; water (pH 7), after 48 hours): over 50%

Further lines, with some results ahead:

Row | free fraction in protein binding assay [1] | IC50 (caspase 1 [2]) | clearance rates (Clint) ([3]; liver microsomes) | t ½ ([3]; liver microsomes) | aqueous stability in acidic conditions (pH 2) [4] | aqueous stability in neutral conditions (water, pH 7) [4] | aqueous stability in basic conditions (pH 8) [4] | free fraction in protein binding assay [5] | IC50 (caspase 1 [6]) | Pgp efflux substrate (Pgp) | Caco-2 A to B permeability (Caco-2) | Caco-2 B to A levels (Caco-2) | Compound | IC50 (caspase 14) | IC50 (caspase 9 [7]) | also measured
4 | significantly higher | 0.023 nM | moderate | moderate | moderate to good | moderate to good | exceedingly stable | significantly higher | 0.316 nM | – | – | – | CC(C)(C)C(NC(=O)c1ccc(N)c(Cl)c1)C(=O)N1CCCC1C(=O)NC(C#N)CC(=O)O (stereo not shown) [NCGC00183434 (4)] | 801 nM | – | degradation in acidic conditions ([4]; acidic (pH 2), after 72 hours): 50%; degradation in neutral conditions ([4]; neutral (pH 7), after 72 hours): 50%; persistence in aqueous conditions ([4]; suggested from the degradation data): > 24 h
5 | significantly higher | 2.58 nM | moderate | moderate | resistant to degradation | resistant to degradation | resistant to degradation | significantly higher | 20.4 nM | – | – | – | CC(C)(C)C(NC(=O)c1ccc(N)c(Cl)c1)C(=O)N1CCCC1C(=O)NC(C#N)Cc1nnn[nH]1 (stereo not shown) [NCGC00183681 (16)] | – | 91.5 nM | –
